In PubChem BioAssay (NCI):
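Dose response: 5 concentrations. Exposure: 48 h. Format: 96-well plates. Endpoint: linear interpolation; highest concentration if not reached. GI50: concentration for 50% inhibition of growth. TGI denotes the concentration required for complete inhibition of growth.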

What was measured:
Test in all cases: growth of human tumour cells (NCI), 48 h
HT29 colon = test system: HT29 colon
HOP-92 NSCLC = test system: HOP-92 NSCLC
MOLT-4 leukemia = test system: MOLT-4 leukemia
NCI/ADR-RES ovarian = test system: NCI/ADR-RES ovarian
SW-620 colon = test system: SW-620 colon
NCI-H226 lung = test system: NCI-H226 lung
HCT-116 colon = test system: HCT-116 colon
SR leukemia = test system: SR leukemia
MCF7 breast = test system: MCF7 breast
MDA-MB-435 = test system: MDA-MB-435
SF-539 CNS = test system: SF-539 CNS
EKVX NSCLC = test system: EKVX NSCLC
RXF 393 renal = test system: RXF 393 renal
HL-60(TB) leukemia = test system: HL-60(TB) leukemia
HCC-2998 colon = test system: HCC-2998 colon
M14 melanoma = test system: M14 melanoma
KM12 colon = test system: KM12 colon
SNB-75 CNS = test system: SNB-75 CNS
SF-268 CNS = test system: SF-268 CNS
786-0 renal = test system: 786-0 renal
MDA-MB-231 breast = test system: MDA-MB-231 breast
ACHN renal = test system: ACHN renal
HOP-62 NSCLC = test system: HOP-62 NSCLC
HS 578T breast = test system: HS 578T breast
T-47D breast = test system: T-47D breast
IGROV1 ovarian = test system: IGROV1 ovarian
U251 CNS = test system: U251 CNS
NCI-H460 lung = test system: NCI-H460 lung
NCI-H23 lung = test system: NCI-H23 lung

Q: For `Cc1ccc(/C(=C/C=C(C#N)C#N)Sc2ccccn2)cc1`, which TGI (HT29 colon) is on record?
A: 8.41 µM

Q: And the GI50 (HOP-92 NSCLC)?
A: 12.6 µM

Q: And the TGI (HOP-92 NSCLC)?
A: 31.7 µM

Q: And the GI50 (MOLT-4 leukemia)?
A: 2.01 µM

Q: What about the TGI (MOLT-4 leukemia) of the same compound?
A: 6.32 µM

Q: What about the GI50 (NCI/ADR-RES ovarian) of the same compound?
A: 4.63 µM

Q: And the TGI (NCI/ADR-RES ovarian)?
A: 13.2 µM

Q: What about the GI50 (SW-620 colon) of the same compound?
A: 0.474 µM

Q: And the TGI (SW-620 colon)?
A: 1.96 µM

Q: And the GI50 (NCI-H226 lung)?
A: 2.53 µM

Q: And the TGI (NCI-H226 lung)?
A: 7.06 µM

Q: And the GI50 (HCT-116 colon)?
A: 2.35 µM

Q: What about the TGI (HCT-116 colon) of the same compound?
A: 5.71 µM

Q: What about the GI50 (SR leukemia) of the same compound?
A: 3.06 µM

Q: And the TGI (SR leukemia)?
A: 10.4 µM

Q: What about the GI50 (MCF7 breast) of the same compound?
A: 4.62 µM

Q: What about the TGI (MCF7 breast) of the same compound?
A: 36 µM

Q: And the GI50 (MDA-MB-435)?
A: 4.79 µM

Q: And the TGI (MDA-MB-435)?
A: 13.3 µM

Q: And the GI50 (SF-539 CNS)?
A: 2.08 µM

Q: What about the TGI (SF-539 CNS) of the same compound?
A: 6.44 µM

Q: What about the GI50 (EKVX NSCLC) of the same compound?
A: 14.6 µM

Q: And the TGI (EKVX NSCLC)?
A: 31.1 µM

Q: What about the GI50 (RXF 393 renal) of the same compound?
A: 15.6 µM

Q: What about the TGI (RXF 393 renal) of the same compound?
A: > 28.1 µM

Q: What about the GI50 (HL-60(TB) leukemia) of the same compound?
A: 0.328 µM

Q: And the TGI (HL-60(TB) leukemia)?
A: 3.72 µM

Q: What about the GI50 (HCC-2998 colon) of the same compound?
A: 3.85 µM

Q: What about the TGI (HCC-2998 colon) of the same compound?
A: 8.84 µM

Q: What about the GI50 (M14 melanoma) of the same compound?
A: 2.69 µM

Q: What about the TGI (M14 melanoma) of the same compound?
A: 6.29 µM

Q: What about the GI50 (KM12 colon) of the same compound?
A: 3.33 µM

Q: And the TGI (KM12 colon)?
A: 20.2 µM

Q: What about the GI50 (SNB-75 CNS) of the same compound?
A: 5.18 µM

Q: And the TGI (SNB-75 CNS)?
A: 18.4 µM

Q: And the GI50 (SF-268 CNS)?
A: 3.37 µM

Q: What about the TGI (SF-268 CNS) of the same compound?
A: 12.3 µM

Q: And the GI50 (786-0 renal)?
A: 2.15 µM

Q: And the TGI (786-0 renal)?
A: 5.64 µM

Q: What about the GI50 (MDA-MB-231 breast) of the same compound?
A: 2.3 µM

Q: And the TGI (MDA-MB-231 breast)?
A: 7.45 µM

Q: And the GI50 (ACHN renal)?
A: 1.83 µM

Q: What about the TGI (ACHN renal) of the same compound?
A: 3.52 µM

Q: And the GI50 (HOP-62 NSCLC)?
A: 6.5 µM

Q: What about the TGI (HOP-62 NSCLC) of the same compound?
A: 18 µM

Q: What about the GI50 (HS 578T breast) of the same compound?
A: 2.46 µM

Q: And the TGI (HS 578T breast)?
A: 8.32 µM

Q: And the GI50 (T-47D breast)?
A: 4 µM

Q: And the TGI (T-47D breast)?
A: > 24.7 µM

Q: What about the GI50 (IGROV1 ovarian) of the same compound?
A: 4.79 µM

Q: And the TGI (IGROV1 ovarian)?
A: 17.4 µM

Q: What about the GI50 (U251 CNS) of the same compound?
A: 5.02 µM

Q: What about the TGI (U251 CNS) of the same compound?
A: 20.3 µM

Q: And the GI50 (NCI-H460 lung)?
A: 4.62 µM

Q: What about the TGI (NCI-H460 lung) of the same compound?
A: 21 µM

Q: What about the GI50 (NCI-H23 lung) of the same compound?
A: 3.68 µM

Q: And the TGI (NCI-H23 lung)?
A: 10.9 µM
